From publication doi:10.1101/2025.02.26.640323, “Aggregation-Dependent Epitope Sequence and Modification Fingerprints of Anti-Aβ Antibodies” (bioRxiv, 2025)
Entries after “also recorded” stand apart in the source; their conditions may differ.

Tests used:
[1] = system: Aβ vascular and parenchymal deposits in AD brain sections; test: Immunohistochemistry on AD brain tissue with antibody pre-adsorption; parameters: species or system human; conditions: 1 μg Donanemabbs with 2.5 μg peptide; human AD brain
Description: Immunohistochemistry was performed on 4-μm paraffin sections. In brief, brain sections were deparaffinized in Roticlear (Carl Roth, Karlsruhe, Germany) and rehydrated in a descending series of ethanol. Activity of endogenous peroxidases was blocked by incubation in 0.3% H2O2 in PBS for 30 min. […] Antibodies and peptides were incubated on a rotator for 3 h at room temperature and reaction tubes were centrifuged at 13000 rpm for 5 min at the end of the incubation period. Control conditions included antibodies in 0.01 M PBS including 10% FCS without synthetic peptides. Adjacent paraffin-embedded sections from a human AD case were incubated overnight with the supernatants and sections were washed with 0.01 M PBS including 0.1 % Tergitol. For detection, biotinylated anti-human antibodies (6 μg/ml, Jackson ImmunoResearch, West Grove, Pennsylvania, USA #109-065-003) were used and staining was visualized with the ABC method with a Vectastain kit (Vector Laboratories, Newark, California, USA), diaminobenzidine as a chromogen and counterstaining with hematoxylin.

[2] = system: PTM-carrying Aβ peptides (PTM-Aβ); test: PTM-Aβ microarray, general; assay type: binding, human; conditions: general statement
Excerpt: (§1) Specific PTMs might be associated with different stages of AD progression and severity, offering potential biomarkers for diagnosis and prognosis. Targeting PTMs represents a potential therapeutic strategy to prevent Aβ aggregation and neurotoxicity, thereby slowing disease progression. […] Therefore, a selected group of PTM-carrying Aβ peptides (PTM-Aβ) were incorporated into the Aβ chip to explore the potential binding preference of selected Aβ-Abs, under optimized concentrations (Figure 3). The antibodies were tested with both PTM-Aβ and the corresponding unmodified variants to provide a head-to-head comparison. This screening was performed in the presence of Aβ phosphorylated at positions Ser(8) or Ser(26), N-terminal pE at position 3, racemization/isomerization of Asp at position 1, and unmodified N-terminal variants. The dataset is divided into sections (Figure 3 a–f) for enhanced visualization, where each antibody was screened simultaneously against all peptides to locate their epitope preferences. […] A set of antibodies without reported PTM preference was applied here as controls (refer to Table 1), namely 11H3, 101–1-1, IC16, 82E1 and 3D6.
(§2) Figure 3. […] Blue and red shades indicate the binding strength over the related arrayed […] modified peptide shown on top and cognate anti-Aβ antibody to the left. […]

[3] = system: mixture of ten synthetic Aβ peptides; test: IP-MS from mixture of ten synthetic Aβ peptides; assay type: binding; conditions: TOPAC matrix, 10ng/mL each peptide
AβpE3-x = test: PTM-Aβ microarray, pE3; assay type: binding, human; conditions: Donanemabbs 0,0012μg/mL, 2–48, Aβ-pE3, IC16 […], vs Aβ3-x with non-cyclized Glu
Excerpt: as §1, §2

[4] = system: synthetic Aβ peptide variants; test: Capillary isoelectric focusing (CIEF) immunoassay; assay type: binding
Description: Automated capillary isoelectric focusing immunoassays were performed with a Peggy-Sue system (ProteinSimple,San Jose, California, USA), essentially as previously described and [53].
In brief, synthetic Aβ peptide variants were separated by isoelectric focusing in microcapillaries followed by photochemical immobilization to the inner capillary walls and probing with the primary antibodies for 120 min. After 2 washes, the horseradish peroxidase conjugated secondary antibodies were loaded and incubated for 60 min. After two washing steps, a luminol/peroxide mix was loaded, and chemiluminescent signals were recorded. The data was analyzed with the Compass for SW software. The following secondary antibodies were used: Anti-human IgG Secondary HRP antibody (Protein Simple, catalog number 043–491), Goat-Anti-Mouse-HRP Secondary Antibody ProteinSimple, catalog number 040–655) and Peroxidase-conjugated Affini Pure Donkey Anti-Human IgG (H+L) (1:100 dilution) (Jackson ImmunoResearch Laboratories Inc., West Grove, PA, code number 709–035-149).

With “Donanemabbs: humanized monoclonal, biosimilar of Donanemab, Proteogenix (#PX-TA1549)” the “IHC immunoreactivity after pre-adsorption with Aβ1–40” value [1] was “not suppressed”, the “IHC immunoreactivity after pre-adsorption with Aβ3–40” value [1] was “not suppressed” and the “IHC immunoreactivity after pre-adsorption with AβpE3–40” value [1] was “efficiently suppressed; also recorded: effectively attenuated”. The “preference for PTMs” value [2] was “exhibited the previously reported preferences for PTMs”, the “IP-MS signal of AβpE3–40” value [3] was “highly preferential binding” and the “selectivity for / binding to AβpE3-x” value (AβpE3-x) was “high selectivity for Aβ peptides starting with an N-terminal pE”. For the same substance, the “signals with other N-terminal Aβ variants (CIEF and Bicine-Tris Western blot)” value [4] was “no or very small signals”, the “preference of Aβ variant (CIEF and Bicine-Tris Western blot)” value ([4]; AβpE3–40 vs Aβ3–40) was “clear preference for the Aβ variant starting with the cyclized N-terminal pE; also recorded: high preference for pyroglutamate bearing pEAβ3–40” and the “Aβ variants detected on CIEF-immunoassay” value ([4]; Peggy Sue, chemiluminescence) was “detected AβpE3–40 and Aβ3–40”.
